Assay results as given in patent publication US9932325B2 (Denali Therapeutics Inc., priority 2015, dated 2018).

Target: LRRK2 G2019S enzyme (Homo sapiens (Human), UniProt Q5S007, G2019S)
Assay: LRRK2 G2019S TR-FRET biochemical assay (LRRKtide substrate)
Conditions: 134 μM ATP
Description: Detection Reaction Conditions • 1× TR-FRET dilution buffer • 10 mM EDTA • 2 nM antibody • 23° C. reaction temperature • 10 μL total reaction volume
Compounds were prepared by initially diluting to 1 mM with DMSO. 35 μL of reference compound solution, 35 μL of test compound solution, and 35 μL HPE were successively added to the source plate (384-well assay plate, Labcyte). The plates were centrifuged at 2500 rpm for 1 minute and sealed in foil. […] The assay plate was centrifuged at 2500 rpm for 1 minute, and sealed with foil.
To perform the enzyme reaction, 5 μL of LRRKtide substrate and kinase mixture in assay buffer was added to all wells of the assay plate. The plate was centrifuged to concentrate the mixture at the bottom of the wells. The assay plate was incubated at 23° C. for 20 minutes. Following incubation, 5 μL of 2× ATP in assay buffer was added to each well, and plates were centrifuged to concentrate the mixture at the bottom of the wells. The plate was incubated at 23° C. for 60 minutes.
To perform the detection of the reaction, EDTA completely mixed in TR-FRET dilution buffer was added to antibody reagent. 10 μL of detection reagent was added to all wells of each well of the assay plate and the plate was centrifuged to concentrate the mixture at the bottom of the wells. The plate was then incubated at 23° C. for 60 minutes.

Chain of LRRK2 G2019S enzyme (Q5S007 whole entry G2019S): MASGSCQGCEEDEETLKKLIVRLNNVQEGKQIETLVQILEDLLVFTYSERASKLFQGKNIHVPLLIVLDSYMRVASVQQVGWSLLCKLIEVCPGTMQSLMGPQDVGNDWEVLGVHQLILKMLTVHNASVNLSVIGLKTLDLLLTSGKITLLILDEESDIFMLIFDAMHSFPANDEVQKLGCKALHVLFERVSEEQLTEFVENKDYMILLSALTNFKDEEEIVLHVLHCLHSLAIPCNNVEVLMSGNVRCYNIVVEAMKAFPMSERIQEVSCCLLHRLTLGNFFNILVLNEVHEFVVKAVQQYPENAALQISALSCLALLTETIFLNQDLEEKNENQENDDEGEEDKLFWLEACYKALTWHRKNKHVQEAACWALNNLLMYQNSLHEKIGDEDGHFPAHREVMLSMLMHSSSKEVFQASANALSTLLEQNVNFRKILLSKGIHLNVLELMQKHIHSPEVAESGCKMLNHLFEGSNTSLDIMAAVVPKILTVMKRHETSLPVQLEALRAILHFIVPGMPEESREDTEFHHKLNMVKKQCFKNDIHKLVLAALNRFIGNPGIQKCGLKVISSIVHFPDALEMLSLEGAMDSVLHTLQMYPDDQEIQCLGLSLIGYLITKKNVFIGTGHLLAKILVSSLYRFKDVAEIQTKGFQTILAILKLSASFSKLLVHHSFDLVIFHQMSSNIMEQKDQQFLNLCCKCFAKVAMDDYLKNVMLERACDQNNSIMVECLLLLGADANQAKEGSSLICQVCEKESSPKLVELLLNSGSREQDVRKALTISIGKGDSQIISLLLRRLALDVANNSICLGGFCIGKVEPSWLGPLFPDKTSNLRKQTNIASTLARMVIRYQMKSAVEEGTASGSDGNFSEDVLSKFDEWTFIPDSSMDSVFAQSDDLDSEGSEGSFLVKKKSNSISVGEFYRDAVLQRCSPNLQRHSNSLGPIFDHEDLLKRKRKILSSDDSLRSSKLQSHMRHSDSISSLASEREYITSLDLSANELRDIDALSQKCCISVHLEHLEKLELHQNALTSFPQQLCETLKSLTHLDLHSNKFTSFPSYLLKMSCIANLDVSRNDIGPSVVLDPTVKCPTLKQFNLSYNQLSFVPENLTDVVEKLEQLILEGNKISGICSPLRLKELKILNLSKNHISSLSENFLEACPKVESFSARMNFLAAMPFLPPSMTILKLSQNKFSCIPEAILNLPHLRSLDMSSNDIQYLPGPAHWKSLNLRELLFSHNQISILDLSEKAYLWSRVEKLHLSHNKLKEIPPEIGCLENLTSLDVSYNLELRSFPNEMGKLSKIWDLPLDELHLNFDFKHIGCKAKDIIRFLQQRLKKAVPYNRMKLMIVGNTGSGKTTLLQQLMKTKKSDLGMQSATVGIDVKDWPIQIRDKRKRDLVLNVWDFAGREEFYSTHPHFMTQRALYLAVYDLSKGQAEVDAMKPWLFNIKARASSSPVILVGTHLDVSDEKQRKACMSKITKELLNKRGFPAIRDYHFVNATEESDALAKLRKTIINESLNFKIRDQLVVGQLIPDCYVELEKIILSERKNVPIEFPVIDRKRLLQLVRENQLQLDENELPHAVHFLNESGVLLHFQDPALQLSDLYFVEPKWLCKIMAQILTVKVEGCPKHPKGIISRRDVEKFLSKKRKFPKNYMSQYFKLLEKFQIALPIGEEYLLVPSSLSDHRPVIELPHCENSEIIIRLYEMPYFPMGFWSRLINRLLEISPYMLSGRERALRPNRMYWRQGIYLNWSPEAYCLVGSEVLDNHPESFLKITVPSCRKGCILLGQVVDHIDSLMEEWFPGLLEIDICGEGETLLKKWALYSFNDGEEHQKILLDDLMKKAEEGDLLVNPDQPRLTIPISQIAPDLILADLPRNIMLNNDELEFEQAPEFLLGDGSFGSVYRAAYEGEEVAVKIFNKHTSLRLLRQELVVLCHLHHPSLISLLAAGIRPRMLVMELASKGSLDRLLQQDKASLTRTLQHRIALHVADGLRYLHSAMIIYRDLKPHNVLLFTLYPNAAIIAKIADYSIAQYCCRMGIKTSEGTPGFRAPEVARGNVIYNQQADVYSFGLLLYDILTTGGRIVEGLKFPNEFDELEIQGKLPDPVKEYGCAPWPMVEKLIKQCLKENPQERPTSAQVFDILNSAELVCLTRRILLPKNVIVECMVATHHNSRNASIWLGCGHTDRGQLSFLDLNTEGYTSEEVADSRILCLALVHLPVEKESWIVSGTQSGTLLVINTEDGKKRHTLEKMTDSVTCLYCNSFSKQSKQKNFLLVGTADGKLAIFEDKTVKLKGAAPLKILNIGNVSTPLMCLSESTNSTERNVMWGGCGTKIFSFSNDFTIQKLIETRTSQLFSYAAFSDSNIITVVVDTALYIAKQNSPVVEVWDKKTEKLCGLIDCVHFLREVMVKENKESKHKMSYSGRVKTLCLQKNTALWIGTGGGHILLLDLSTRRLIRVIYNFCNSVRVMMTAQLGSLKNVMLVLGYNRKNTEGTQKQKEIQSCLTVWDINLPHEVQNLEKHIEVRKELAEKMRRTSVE

| Compound | IC50 [nM] |
| --- | --- |
| CCNc1nc(Nc2cc([C@@]34C[C@@H]3COC4=O)nn2C2CC2)ncc1C(F)(F)F [Compound 162, (1R,5S)-1-[1-cyclopropyl-5-[[4-(ethylamino)-5-(trifluoromethyl)pyrimidin-2-yl]amino]pyrazol-3-yl]-3-oxabicyclo[3.1.0]hexan-2-one] | < 30 |
| [2H]C([2H])([2H])N1CCC(n2cc(Nc3ncc(C(F)(F)F)c(NCC)n3)c(C)n2)C1=O (centres unmarked) [Compound 25] | < 30 |
| CCNc1nc(Nc2cnn(-c3cnccn3)c2Cl)ncc1C(F)(F)F [Compound 98] | < 30 |
| CCNc1nc(Nc2cc(C3(C)CCC(=O)N3)nn2C2CC2)ncc1C(F)(F)F (centres unmarked) [Compound 136] | 30 to 60 |
| CCNc1nc(Nc2cc(S(C)(=O)=O)nn2C2CC2)ncc1C(F)(F)F [Compound 132] | < 30 |
| [2H]C([2H])([2H])n1nc(C2(C)CCOC2=O)cc1Nc1ncc(C(F)(F)F)c(NCC)n1 (centres unmarked) [Compound 174] | < 30 |
| CCNc1nc(Nc2cn(C3(C)CCOC3=O)nc2C2CC2)ncc1C(F)(F)F (centres unmarked) [Compound 108] | < 30 |
| Cc1nn(C(C)(C)C#N)cc1Nc1ncc(Cl)c(NC2CC2)n1 [Compound 72] | < 30 |
| [2H]C([2H])([2H])Nc1nc(Nc2cn(C(C)(C)C#N)nc2C)ncc1C(F)(F)F [Compound 67] | < 30 |
| [2H]C([2H])([2H])c1nn(C(C#N)(C([2H])([2H])[2H])C([2H])([2H])[2H])cc1Nc1ncc(C(F)(F)F)c(NC([2H])([2H])C([2H])([2H])[2H])n1 [Compound 74] | < 30 |
| CNc1nc(Nc2cnn3c2CC2(COC2)C3)ncc1C(F)(F)F [Compound 16] | < 30 |
| COc1nc(Nc2cn(C3(C)CCNC3=O)nc2C)ncc1Br (single isomer, unassigned) [Compound 64B] | < 30 |
| CCNc1nc(Nc2cn([C@H]3C[C@@H](C#N)C3)nc2C)ncc1C(F)(F)F [Compound 35B] | < 30 |
| CNc1nc(Nc2cc(C3(C)CCn4ccnc43)nn2C2CC2)ncc1C(F)(F)F (centres unmarked) [Compound 177] | > 60 |
| CCNc1nc(Nc2cn(C3C[C@@H]3C#N)nc2Cl)ncc1C(F)(F)F (single isomer, unassigned) [Compound 206] | < 30 |
| CNc1nc(Nc2cn(C3C[C@@H]4[C@H](C3)C4(F)F)nc2Cl)ncc1C(F)(F)F (some centres unmarked) [Compound 10] | > 60 |
| CCNc1nc(Nc2cc(C(C)(C)n3nccn3)nn2CC)ncc1C(F)(F)F [Compound 129] | < 30 |
| CCNc1nc(Nc2cnn(C3CNCCC3(F)F)c2C)ncc1C(F)(F)F (single isomer, unassigned) [Compound 201] | < 30 |
| CCNc1nc(Nc2cn(C3(CF)CCOC3=O)nc2C)ncc1C(F)(F)F (single isomer, unassigned) [Compound 216] | < 30 |
| CCNc1nc(Nc2ccnn2[C@H]2C[C@@H](O)C2)ncc1C(F)(F)F [Compound 179] | < 30 |
| CCNc1nc(Nc2cc(C3(C)CCn4ccnc43)nn2C2CC2)ncc1C(F)(F)F (centres unmarked) [Compound 167] | < 30 |
| CCNc1nc(Nc2cnn([C@H]3C[C@H](n4nccn4)C3)c2C2CC2)ncc1C(F)(F)F [Compound 97] | < 30 |

| Compound | IC50 [nM] |
| --- | --- |
| CNc1nc(Nc2cn(C3C[C@@H]4C[C@@H]4C3)nc2C)ncc1C(F)(F)F (some centres unmarked) [Compound 3] | < 30 |
| CNc1nc(Nc2cn(C3(C)CCOC3=O)nc2C)ncc1C(F)(F)F (single isomer, unassigned) [Compound 124] | < 30 |
| CCNc1nc(Nc2cnn(C3CC(N4CCN(CC(F)F)CC4)C3)c2C)ncc1C(F)(F)F (centres unmarked) [Compound 121] | < 30 |
| CCNc1nc(Nc2cc(C(C)(C)O)nn2C2CC2)ncc1C(F)(F)F [Compound 134] | < 30 |
| CCNc1nc(Nc2ccnn2[C@H]2C[C@H](n3nccn3)C2)ncc1C(F)(F)F [Compound 182, N2-(1-((1R,3R)-3-(2H-1,2,3-triazol-2-yl)cyclobutyl)-1H-pyrazol-5-yl)-N4-ethyl-5-(trifluoromethyl)pyrimidine-2,4-diamine] | < 30 |
| CNc1nc(Nc2cc(C(C)(C)n3nccn3)nn2C2CC2)ncc1C(F)(F)F [Compound 77] | < 30 |
| CCNc1nc(Nc2cnn([C@H]3C[C@@H](N4CCN(CC(F)F)CC4)C3)c2C)ncc1C(F)(F)F [Compound 106] | < 30 |
| CCNc1nc(Nc2cc([C@@]3(C)CCOC3=O)nn2C2CC2)ncc1C(F)(F)F [Compound 144, (3R)-3-[1-cyclopropyl-5-[[4-(ethylamino)-5-(trifluoromethyl)pyrimidin-2-yl]amino]pyrazol-3-yl]-3-methyl-tetrahydrofuran-2-one] | < 30 |
| CNc1nc(Nc2cn(C3(C)CCOC3=O)nc2Cl)ncc1C(F)(F)F (single isomer, unassigned) [Compound 123] | < 30 |
| CCNc1nc(Nc2ccnn2[C@H]2C[C@@H](n3ccnn3)C2)ncc1C(F)(F)F [Compound 189] | 30 to 60 |
| COc1nc(Nc2cc(C(C)(C)n3nccn3)nn2C2CC2)ncc1Br [Compound 157] | 30 to 60 |
| CCNc1nc(Nc2cnn3c2CC(C#N)C3)ncc1C(F)(F)F (single isomer, unassigned) [Compound 52A] | < 30 |
| CNc1nc(Nc2cn(C(C)(C)C#N)nc2C)ncc1Br [Compound 42] | < 30 |
| Cc1nn(C(C)(C)C#N)cc1Nc1ncc(C(F)(F)F)c(NCC(F)F)n1 [Compound 59] | < 30 |
| CNc1nc(Nc2cc(C(C)(C)c3ncccn3)nn2C2CC2)ncc1C(F)(F)F [Compound 128] | < 30 |
| [2H]C([2H])([2H])C(C#N)(n1cc(Nc2ncc(C(F)(F)F)c(NC)n2)c(C)n1)C([2H])([2H])[2H] [Compound 80] | < 30 |
| [2H]C([2H])([2H])Nc1nc(Nc2cn(C(C#N)(C([2H])([2H])[2H])C([2H])([2H])[2H])nc2C([2H])([2H])[2H])ncc1C(F)(F)F [Compound 40] | < 30 |
| CCNc1nc(Nc2cc(C(C)(C)S(C)(=O)=O)nn2C2CC2)ncc1Br [Compound 140] | < 30 |
| Cc1nn(C(C)(C)C#N)cc1Nc1ncc(C(F)(F)F)c(N[C@H]2C[C@H]2F)n1 [Compound 39A] | < 30 |
| [2H]C([2H])([2H])n1nc(C(C)(C)n2nccn2)cc1Nc1ncc(Br)c(NCC)n1 [Compound 75] | < 30 |
| [2H]C([2H])([2H])c1nn(C(C#N)(C([2H])([2H])[2H])C([2H])([2H])[2H])cc1Nc1ncc(C(F)(F)F)c(NCC(F)F)n1 [Compound 46] | < 30 |
| CCNc1nc(Nc2cnn3c2CC(F)C3)ncc1C(F)(F)F (centres unmarked) [Compound 50] | < 30 |

| Compound | IC50 [nM] |
| --- | --- |
| [2H]C([2H])([2H])c1nn(C(C#N)(C([2H])([2H])[2H])C([2H])([2H])[2H])cc1Nc1ncc(C(F)(F)F)c(NCC)n1 [Compound 44] | < 30 |
| CCNc1nc(Nc2cn(C(C)(C)C#N)nc2C)ncc1Br [Compound 43] | < 30 |
| CCNc1nc(Nc2cc(C3(C)COC3)nn2C2CC2)ncc1C(F)(F)F [Compound 145] | < 30 |
| COc1nc(Nc2cnn(C3(C)CCNC3=O)c2C)ncc1Br (centres unmarked) [Compound 65] | < 30 |
| Cc1nn(C2(C)CCOC2=O)cc1Nc1ncc(C(F)(F)F)c(C2CC2)n1 (single isomer, unassigned) [Compound 103] | < 30 |
| CCNc1nc(Nc2cc(C(C)(C)OC)nn2C2CCC2)ncc1C(F)(F)F [Compound 192] | < 30 |
| CCNc1nc(Nc2cn(C3(CF)CCOC3=O)nc2C)ncc1C(F)(F)F (single isomer, unassigned) [Compound 217] | < 30 |
| [2H]C([2H])([2H])n1nc(C(C)(C)n2nccn2)cc1Nc1ncc(Br)c(OC2CC2)n1 [Compound 81] | < 30 |
| CNc1nc(Nc2cc([C@@]34C[C@@H]3COC4=O)nn2C2CC2)ncc1C(F)(F)F [Compound 163] | < 30 |
| Cc1nn(C(C)(C)C#N)cc1Nc1ncc(C(F)(F)F)c(NC2C3CC2C3)n1 (centres unmarked) [Compound 5] | < 30 |
| CCNc1nc(Nc2cc(C(C)(C)n3nccn3)nn2C)ncc1C(F)(F)F [Compound 57] | < 30 |
| [2H]C([2H])([2H])n1nc(C(C)(C)c2ncco2)cc1Nc1ncc(C(F)(F)F)c(NCC)n1 [Compound 82] | < 30 |
| [2H]C([2H])([2H])C([2H])([2H])Nc1nc(Nc2cn(C(C)(C)C#N)nc2C)ncc1C(F)(F)F [Compound 89] | < 30 |
| COc1nc(Nc2cn(C3(C)CCOC3=O)nc2C)ncc1Br (single isomer, unassigned) [Compound 102] | < 30 |
| [2H]C([2H])([2H])c1nn(C(C)(C)C#N)cc1Nc1ncc(C(F)(F)F)c(NC)n1 [Compound 62] | < 30 |
| Cc1nn(C(C)(C)C#N)cc1Nc1ncc(C(F)(F)F)c(NC(CF)CF)n1 [Compound 76] | < 30 |
| [2H]C([2H])([2H])Nc1nc(Nc2cn(C(C)(C)C#N)nc2C([2H])([2H])[2H])ncc1C(F)(F)F [Compound 63] | < 30 |
| CCNc1nc(Nc2cn(C3C[C@@H]3C#N)nc2C2CC2)ncc1Br (single isomer, unassigned) [Compound 214] | < 30 |
| [2H]C([2H])([2H])n1nc(C2(C)CCCO2)cc1Nc1ncc(C(F)(F)F)c(NCC)n1 (centres unmarked) [Compound 186] | < 30 |
| CCNc1nc(Nc2cc(C(C)(C)S(C)(=O)=O)nn2C2CC2)ncc1C(F)(F)F [Compound 139] | < 30 |
| Cc1nn(C(C)(C)C#N)cc1Nc1ncc(Br)c(NCC(F)F)n1 [Compound 73] | < 30 |
